In PubChem BioAssay (NCI):
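Five compound concentrations were applied to cells in 96-well plates for 48 hours; endpoints were derived by simple linear interpolation of the resulting dose-response curve. GI50: concentration for 50% inhibition of growth. Definition used: TGI = concentration required for complete inhibition of growth.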

What was measured:
Assay in all cases: NCI-60 cell line screen, 48 h
[1] = system: A549 NSCLC
[2] = system: MCF7 breast
[3] = system: OVCAR-8 ovarian
[4] = system: SK-MEL-28 melanoma
[5] = system: PC-3 prostate
[6] = system: M14 melanoma
[7] = system: DU-145 prostate
[8] = system: SF-268 CNS
[9] = system: OVCAR-3 ovarian
[10] = system: MALME-3M melanoma
[11] = system: EKVX NSCLC
[12] = system: BT-549 breast
[13] = system: MOLT-4 leukemia
[14] = system: K-562 leukemia
[15] = system: MDA-MB-231 breast
[16] = system: RXF 393 renal
[17] = system: HCT-116 colon
[18] = system: SF-295 CNS
[19] = system: SK-MEL-5 melanoma
[20] = system: SN12C renal
[21] = system: 786-0 renal
[22] = system: A498 renal
[23] = system: UO-31 renal
[24] = system: MDA-MB-468 breast
[25] = system: LOX IMVI melanoma
[26] = system: SK-OV-3 ovarian
[27] = system: OVCAR-4 ovarian
[28] = system: MDA-MB-435
[29] = system: NCI-H522 lung
[30] = system: UACC-257 melanoma
[31] = system: HT29 colon
[32] = system: NCI-H23 lung
[33] = system: HS 578T breast
[34] = system: IGROV1 ovarian
[35] = system: HOP-62 NSCLC
[36] = system: KM12 colon
[37] = system: HCC-2998 colon
[38] = system: CCRF-CEM leukemia
[39] = system: SNB-19 CNS
[40] = system: SF-539 CNS
[41] = system: HOP-92 NSCLC
[42] = system: HL-60(TB) leukemia
[43] = system: U251 CNS
[44] = system: OVCAR-5 ovarian
[45] = system: ACHN renal
[46] = system: T-47D breast
[47] = system: UACC-62 melanoma
[48] = system: RPMI-8226 leukemia
[49] = system: NCI-H226 lung
[50] = system: SR leukemia
[51] = system: HCT-15 colon
[52] = system: NCI-H460 lung
[53] = system: SW-620 colon
[54] = system: COLO 205 colon
[55] = system: CAKI-1 renal
[56] = system: SNB-75 CNS
[57] = system: TK-10 renal

Compound: Cc1cccc(NC(=O)[C@]23CCC(C)(C)CC2C2=CCC4[C@@]5(C)C[C@@H](O)[C@H](O)[C@@](C)(CO)C5CC[C@@]4(C)[C@]2(C)CC3)c1 (some centres undefined)
- GI50 [1]: 22.2 µM
- TGI [1]: > 100 µM
- GI50 [2]: 5.71 µM
- TGI [2]: 19.2 µM
- GI50 [3]: 18.5 µM
- TGI [3]: 60.2 µM
- GI50 [4]: 13.3 µM
- TGI [4]: 26.5 µM
- GI50 [5]: 5.16 µM
- TGI [5]: 20.5 µM
- GI50 [6]: 13.7 µM
- TGI [6]: 27.3 µM
- GI50 [7]: 16.5 µM
- TGI [7]: 39.1 µM
- GI50 [8]: 14.1 µM
- TGI [8]: 42.3 µM
- GI50 [9]: 14 µM
- TGI [9]: 28 µM
- GI50 [10]: 14.7 µM
- TGI [10]: 28.3 µM
- GI50 [11]: 12.8 µM
- TGI [11]: 29.1 µM
- GI50 [12]: 14.3 µM
- TGI [12]: 27.8 µM
- GI50 [13]: 7.87 µM
- TGI [13]: 52 µM
- GI50 [14]: 14.5 µM
- TGI [14]: 60.5 µM
- GI50 [15]: 13.8 µM
- TGI [15]: 28.1 µM
- GI50 [16]: 3.77 µM
- TGI [16]: 17 µM
- GI50 [17]: 10.7 µM
- TGI [17]: 22.5 µM
- GI50 [18]: 10 µM
- TGI [18]: 22.5 µM
- GI50 [19]: 11.9 µM
- TGI [19]: 24.3 µM
- GI50 [20]: 12.6 µM
- TGI [20]: 25.5 µM
- GI50 [21]: 14.6 µM
- TGI [21]: 29.4 µM
- GI50 [22]: 15.7 µM
- TGI [22]: 29.4 µM
- GI50 [23]: 7.07 µM
- TGI [23]: 20.3 µM
- GI50 [24]: 5.17 µM
- TGI [24]: 20.4 µM
- GI50 [25]: 12.8 µM
- TGI [25]: 27.8 µM
- GI50 [26]: 14.5 µM
- TGI [26]: 34.6 µM
- GI50 [27]: 11.5 µM
- TGI [27]: 25.2 µM
- GI50 [28]: 13.3 µM
- TGI [28]: 26.5 µM
- GI50 [29]: 14.6 µM
- TGI [29]: 28.9 µM
- GI50 [30]: 15.3 µM
- TGI [30]: 31.5 µM
- GI50 [31]: 13.1 µM
- TGI [31]: 27 µM
- GI50 [32]: 14.6 µM
- TGI [32]: 28.8 µM
- GI50 [33]: 12.8 µM
- TGI [33]: 50.8 µM
- GI50 [34]: 12.2 µM
- TGI [34]: 25.4 µM
- GI50 [35]: 14.9 µM
- TGI [35]: 29.4 µM
- GI50 [36]: 14.1 µM
- TGI [36]: 30.8 µM
- GI50 [37]: 13 µM
- TGI [37]: 26.2 µM
- GI50 [38]: 9.29 µM
- TGI [38]: 35.1 µM
- GI50 [39]: 18.4 µM
- TGI [39]: 47.4 µM
- GI50 [40]: 13.9 µM
- TGI [40]: 28 µM
- GI50 [41]: 8.64 µM
- TGI [41]: 23.1 µM
- GI50 [42]: 15.2 µM
- TGI [42]: 55.9 µM
- GI50 [43]: 14.9 µM
- TGI [43]: 30.1 µM
- GI50 [44]: 13.3 µM
- TGI [44]: 26.4 µM
- GI50 [45]: 12.4 µM
- TGI [45]: 24.9 µM
- GI50 [46]: 7.45 µM
- TGI [46]: 20.7 µM
- GI50 [47]: 11.3 µM
- TGI [47]: 23.7 µM
- GI50 [48]: 6.25 µM
- TGI [48]: 32 µM
- GI50 [49]: 10.4 µM
- TGI [49]: 22.9 µM
- GI50 [50]: 16.7 µM
- TGI [50]: > 100 µM
- GI50 [51]: 10.8 µM
- TGI [51]: 23.4 µM
- GI50 [52]: 12.5 µM
- TGI [52]: 25.6 µM
- GI50 [53]: 15 µM
- TGI [53]: 29.7 µM
- GI50 [54]: 13.6 µM
- TGI [54]: 29.1 µM
- GI50 [55]: 6.63 µM
- TGI [55]: 21.9 µM
- GI50 [56]: 6.02 µM
- TGI [56]: 39.1 µM
- GI50 [57]: 16.5 µM
- TGI [57]: 35.8 µM
